# Legend:
# [1] = tested on: λ-carrageenan–induced inflammatory pain injected rats; assay: Hargreaves thermal nociception test in λ-carrageenan-induced paw edema model; type: in vivo; conditions: LENK-SQ NPs 20 mg/kg i.v.; morphine 1 mg/kg; rat
# [2] = In vitro release of LENK from NPs / bioconjugate stability in serum; type: in vitro ADME; conditions: diluted male SWISS mouse serum (30% in 5% dextrose), 37°C; RP-HPLC, UV 257 nm
structure (smiles),measurement,setting,value
"CC(C)=CCC/C(C)=C/CC/C(C)=C/CC/C=C(\C)CC/C=C(\C)CCC(=O)OCOC(=O)C(CC(C)C)NC(=O)C(Cc1ccccc1)NC(=O)CNC(=O)CNC(=O)C(N)Cc1ccc(O)cc1 (centres unmarked) [LENK-SQ-Diox, Leu-enkephalin-squalene with dioxycarbonyl linker]","AUC of PWL time course, comparison between treatments",[1],significantly higher AUC than morphine and LENK-SQ-Am NPs
same,Time that the released LENK peptide still lasted in serum,[2],over 10 hours

# From paper PMC6374102 (Science Advances, 2019)
